Measurements reported in PubChem BioAssay AID248 (DTP/NCI, 2004).
Several values for one entry are separate records, joined by “and”; a condition that tells them apart may be missing. Identical values can stand only once. Inconclusive results and toxic doses are left out. Cut-off read from the data, not from the text of the source: active = T/C of 150% or more; inactive = T/C below 125%.

Test system: L1210 leukemia ip in BDF1 mice, survival T/C
Assay: NCI In Vivo Anticancer Drug Screen. Data for tumor model L1210 Leukemia (intraperitoneal) in B6D2F1 (BDF1) mice
Settings: endpoint: mean survival time, higher = longer survival
Outline: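 Transplantable tumor model; survival measured in treated vs vehicle control mice. Value = treated/control.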

[1] = dose: 100.0 mg/kg/injection, schedule: Q01DX009 (ip), vehicle: saline
[2] = dose: 100.0 mg/kg/injection, schedule: Q04DX003 (ip), vehicle: saline
[3] = dose: 200.0 mg/kg/injection, schedule: Q01DX009 (ip), vehicle: saline
[4] = dose: 200.0 mg/kg/injection, schedule: Q04DX003 (ip), vehicle: saline
[5] = dose: 400.0 mg/kg/injection, schedule: Q04DX003 (ip), vehicle: saline
[6] = dose: 25.0 mg/kg/injection, schedule: Q01DX001 (ip), vehicle: Klucel (hydroxypropylcellulose) (HPC)
[7] = dose: 50.0 mg/kg/injection, schedule: Q01DX001 (ip), vehicle: Klucel (hydroxypropylcellulose) (HPC)
[8] = dose: 100.0 mg/kg/injection, schedule: Q01DX001 (ip), vehicle: Klucel (hydroxypropylcellulose) (HPC)
[9] = dose: 100.0 mg/kg/injection, schedule: Q04DX003 (ip), vehicle: Klucel (hydroxypropylcellulose) (HPC)
[10] = dose: 100.0 mg/kg/injection, schedule: Q01DX009 (ip), vehicle: Klucel (hydroxypropylcellulose) (HPC)
[11] = dose: 200.0 mg/kg/injection, schedule: Q01DX009 (ip), vehicle: Klucel (hydroxypropylcellulose) (HPC)
[12] = dose: 400.0 mg/kg/injection, schedule: Q01DX009 (ip), vehicle: Klucel (hydroxypropylcellulose) (HPC)
[13] = dose: 50.0 mg/kg/injection, schedule: Q01DX009 (ip), vehicle: saline
[14] = dose: 50.0 mg/kg/injection, schedule: Q04DX003 (ip), vehicle: saline
[15] = dose: 75.0 mg/kg/injection, schedule: Q01DX001 (ip), vehicle: saline
[16] = dose: 150.0 mg/kg/injection, schedule: Q01DX001 (ip), vehicle: saline
[17] = dose: 200.0 mg/kg/injection, schedule: Q01DX001 (ip), vehicle: Klucel (hydroxypropylcellulose) (HPC)
[18] = dose: 100.0 mg/kg/injection, schedule: Q01DX001 (ip), vehicle: saline
[19] = dose: 200.0 mg/kg/injection, schedule: Q01DX001 (ip), vehicle: saline
[20] = dose: 400.0 mg/kg/injection, schedule: Q01DX001 (ip), vehicle: saline
[21] = dose: 100.0 mg/kg/injection, schedule: Q01DX001 (ip), vehicle: carboxymethylcellulose (CMC)
[22] = dose: 100.0 mg/kg/injection, schedule: Q01DX009 (ip), vehicle: saline with Tween-80
[23] = dose: 200.0 mg/kg/injection, schedule: Q01DX009 (ip), vehicle: saline with Tween-80
[24] = dose: 100.0 mg/kg/injection, schedule: Q04DX003 (ip), vehicle: saline with Tween-80
[25] = dose: 200.0 mg/kg/injection, schedule: Q04DX003 (ip), vehicle: saline with Tween-80
[26] = dose: 400.0 mg/kg/injection, schedule: Q01DX009 (ip), vehicle: saline with Tween-80
[27] = dose: 400.0 mg/kg/injection, schedule: Q04DX003 (ip), vehicle: saline with Tween-80

Measured: T/C

O=C(O)CCCC[P+](c1ccccc1)(c1ccccc1)c1ccccc1
inactive: [1] 98 % of control | [2] 105 % of control | [3] 100 % of control | [4] 107 % of control | [5] 102 % of control

C[Si](C)(CCl)c1ccccc1
inactive: [2] 107 % of control | [4] 105 % of control | [5] 100 % of control

O=C(Nc1cc([N+](=O)[O-])ccc1F)Oc1ccc(OCc2ccccc2)cc1
inactive: dose: 100.0 mg/kg/injection, schedule: Q04DX002 (ip), vehicle: Klucel (hydroxypropylcellulose) (HPC) 103 % of control | dose: 200.0 mg/kg/injection, schedule: Q04DX002 (ip), vehicle: Klucel (hydroxypropylcellulose) (HPC) 89 % of control | dose: 400.0 mg/kg/injection, schedule: Q04DX002 (ip), vehicle: Klucel (hydroxypropylcellulose) (HPC) 106 % of control

CC(C)(Cl)/N=N/C(C)(C)Cl
inactive: [6] 99 % of control | dose: 25.0 mg/kg/injection, schedule: Q04DX003 (ip), vehicle: Klucel (hydroxypropylcellulose) (HPC) 98 % of control | [7] 92 % of control | dose: 50.0 mg/kg/injection, schedule: Q04DX003 (ip), vehicle: Klucel (hydroxypropylcellulose) (HPC) 97 % of control | [8] 94 % of control and 95 % of control | [9] 98 % of control

Cc1ccccc1C(Br)C1=CC(C)(C)c2ccccc2C1=O (stereo not given)
inactive: [10] 101 % of control | [9] 97 % of control | [11] 105 % of control | dose: 200.0 mg/kg/injection, schedule: Q04DX003 (ip), vehicle: Klucel (hydroxypropylcellulose) (HPC) 92 % of control | [12] 95 % of control | dose: 400.0 mg/kg/injection, schedule: Q04DX003 (ip), vehicle: Klucel (hydroxypropylcellulose) (HPC) 90 % of control

CC(C)=NOC(C)C(=O)O (stereo not given)
inactive: [13] 94 % of control and 101 % of control | [14] 95 % of control | [15] 101 % of control and 98 % of control | [1] 91 % of control and 97 % of control | [2] 100 % of control and 98 % of control | [16] 103 % of control and 106 % of control | [3] 92 % of control and 103 % of control | [4] 97 % of control and 95 % of control | dose: 300.0 mg/kg/injection, schedule: Q01DX001 (ip), vehicle: saline 114 % of control

CCCCCC[Se]CCCCCC
inactive: dose: 12.5 mg/kg/injection, schedule: Q01DX009 (ip), vehicle: saline 98 % of control | dose: 25.0 mg/kg/injection, schedule: Q01DX009 (ip), vehicle: saline 96 % of control | dose: 25.0 mg/kg/injection, schedule: Q04DX003 (ip), vehicle: saline 101 % of control | [13] 93 % of control and 102 % of control | [14] 97 % of control | [2] 98 % of control and 100 % of control

CC1(C)CSC(=S)N1CCC#N
inactive: dose: 75.0 mg/kg/injection, schedule: Q01DX001 (ip), vehicle: other 104 % of control

CCOC(=O)c1cnc(SC)nc1Nc1ccccc1N
inactive: [7] 94 % of control | [8] 94 % of control | [17] 101 % of control

CN(C)c1ccc(C(C#N)C(C#N)c2ccccc2)cc1 (stereo not given)
inactive: [7] 88 % of control | [8] 88 % of control | [17] 88 % of control

COCCCNP(=S)(OC)OC
inactive: dose: 100.0 mg/kg/injection, schedule: Q01DX001 (ip), vehicle: other 98 % of control | dose: 100.0 mg/kg/injection, schedule: Q04DX003 (ip), vehicle: other 98 % of control | dose: 200.0 mg/kg/injection, schedule: Q01DX001 (ip), vehicle: other 105 % of control | dose: 200.0 mg/kg/injection, schedule: Q04DX003 (ip), vehicle: other 98 % of control | dose: 400.0 mg/kg/injection, schedule: Q01DX001 (ip), vehicle: other 94 % of control | dose: 400.0 mg/kg/injection, schedule: Q04DX003 (ip), vehicle: other 101 % of control

CC(C)CCCC(C)C1CCC2C3CC(=O)NC4CC(Cl)CCC4(C)C3CCC12C (stereo not given)
inactive: [18] 89 % of control | [2] 86 % of control | [19] 93 % of control | [20] 91 % of control

NC(N)=N/N=C(\C(=N\N=C(N)N)c1ccccc1)c1ccccc1
inactive: dose: 60.0 mg/kg/injection, schedule: Q01DX Z (oral), vehicle: methylcellulose (MC) 98 % of control | dose: 120.0 mg/kg/injection, schedule: Q01DX Z (oral), vehicle: methylcellulose (MC) 96 % of control | dose: 240.0 mg/kg/injection, schedule: Q01DX Z (oral), vehicle: methylcellulose (MC) 94 % of control | dose: 480.0 mg/kg/injection, schedule: Q01DX Z (oral), vehicle: methylcellulose (MC) 91 % of control

CCCC[N+](C)(CC(C)C)C1CCCCCCC1 (stereo not given)
inactive: dose: 75.0 mg/kg/injection, schedule: Q01DX001 (ip), vehicle: carboxymethylcellulose (CMC) 104 % of control | [15] 96 % of control | [16] 93 % of control

O=C(Nc1cc([N+](=O)[O-])ccc1O)Nc1cccc(Cl)c1Cl
inactive: [10] 88 % of control | [11] 100 % of control | [12] 92 % of control

CSc1nc(N)c(N=Nc2ccc(S(=O)(=O)Nc3nccs3)cc2)c(=O)[nH]1
inactive: [21] 92 % of control | dose: 200.0 mg/kg/injection, schedule: Q01DX001 (ip), vehicle: carboxymethylcellulose (CMC) 92 % of control | dose: 400.0 mg/kg/injection, schedule: Q01DX001 (ip), vehicle: carboxymethylcellulose (CMC) 92 % of control

CN(C)C(=S)NCc1ccccc1
inactive: [22] 95 % of control | [23] 101 % of control

CC(O)(CCl)C(=O)O (stereo not given)
inactive: [2] 96 % of control | [4] 98 % of control | [5] 96 % of control

O=C1NC(=S)NC(=O)C1=Cc1ccncc1
inactive: [18] 105 % of control | [19] 102 % of control | [20] 98 % of control

c1ccc(C2=NC2c2ccccc2)cc1 (stereo not given)
inactive: [6] 97 % of control | [7] 96 % of control | [8] 105 % of control

O=S(=O)(CC(O)(c1ccccc1)c1ccccc1)CC(O)(c1ccccc1)c1ccccc1
inactive: dose: 50.0 mg/kg/injection, schedule: Q01DX001 (ip), vehicle: saline 93 % of control | [18] 91 % of control | [19] 93 % of control | [20] 87 % of control

CCCSCCCCSCCC
inactive: dose: 25.0 mg/kg/injection, schedule: Q04DX003 (ip), vehicle: saline with Tween-80 115 % of control | dose: 50.0 mg/kg/injection, schedule: Q04DX003 (ip), vehicle: saline with Tween-80 104 % of control | [22] 100 % of control | [24] 102 % of control | [23] 109 % of control | [25] 92 % of control | [26] 91 % of control | [27] 95 % of control

O=C1NC(=O)N(c2ccccc2)C(=O)/C1=C/c1ccccc1
inactive: [8] 90 % of control | [17] 97 % of control

Nc1ncnc2c1ncn2C1SC(CO)C2OC21 (stereo not given)
inactive: dose: 25.0 mg/kg/injection, schedule: Q01DX001 (ip), vehicle: carboxymethylcellulose (CMC) 93 % of control | dose: 50.0 mg/kg/injection, schedule: Q01DX001 (ip), vehicle: carboxymethylcellulose (CMC) 96 % of control | [21] 90 % of control | dose: 200.0 mg/kg/injection, schedule: Q01DX005 (ip), vehicle: saline 94 % of control

Cc1nc(N)sc1CCCl
inactive: dose: 36.0 mg/kg/injection, schedule: Q01DX015 (ip), vehicle: carboxymethylcellulose (CMC) 100 % of control | dose: 54.0 mg/kg/injection, schedule: Q01DX015 (ip), vehicle: carboxymethylcellulose (CMC) 94 % of control

Cc1ccc(S(=O)(=O)Nc2ccc3nc(C)oc3c2)cc1
inactive: [22] 100 % of control | [24] 96 % of control | [23] 102 % of control | [25] 91 % of control | [26] 93 % of control | [27] 89 % of control
